Measured values taken from PubChem BioAssay (NCI).
Several values for one entry are separate records, joined by “and”; a condition that tells them apart may be missing. Equal entries are not always repeated.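 Where inhibition never reached the appropriate level, the endpoint shown equals the highest concentration tested. Otherwise, values were interpolated linearly from a five-concentration, 48-hour dose response in 96-well plates. GI50 marks 50% less growth. TGI marks complete inhibition of growth.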

Experiments:
Experiment in all cases: growth of human tumour cells (NCI), 48 h
A498 renal = system: A498 renal
HOP-62 NSCLC = system: HOP-62 NSCLC
KM12 colon = system: KM12 colon
MOLT-4 leukemia = system: MOLT-4 leukemia
OVCAR-8 ovarian = system: OVCAR-8 ovarian
TK-10 renal = system: TK-10 renal
UO-31 renal = system: UO-31 renal
MALME-3M melanoma = system: MALME-3M melanoma
SR leukemia = system: SR leukemia

`COc1ccc(OC)c(/C=C/C(=O)c2ccc3cc(OC)ccc3c2)c1` gave a GI50 (A498 renal) of 12.2 µM, a TGI (A498 renal) greater than 31.9 µM and a GI50 (HOP-62 NSCLC) of 9.71 µM. It also gave a TGI (HOP-62 NSCLC) greater than 50 µM, a GI50 (KM12 colon) of 3.02 µM and a TGI (KM12 colon) of 11.2 µM. It also gave a GI50 (MOLT-4 leukemia) of 7.74 µM, a TGI (MOLT-4 leukemia) of 26.1 µM and a TGI (OVCAR-8 ovarian) greater than 11.9 µM. It also gave a GI50 (TK-10 renal) of 3.84 µM, a TGI (TK-10 renal) greater than 50 µM and a TGI (UO-31 renal) greater than 15.2 µM.

`O=C(O)CSc1nnc2c3ccccc3c3ccccc3c2n1` gave a TGI (A498 renal) greater than 100 µM, a TGI (HOP-62 NSCLC) greater than 100 µM and a TGI (KM12 colon) greater than 100 µM. It also gave a TGI (MALME-3M melanoma) greater than 100 µM, a TGI (OVCAR-8 ovarian) greater than 100 µM and a TGI (SR leukemia) greater than 100 µM. For the same compound, the TGI (TK-10 renal) was greater than 100 µM and the TGI (UO-31 renal) was greater than 100 µM.

`CN(C)c1ccc(/C=N/NC(=O)c2cnc3ccccc3c2)cc1` was tested, and the TGI (A498 renal) was greater than 100 µM, the TGI (HOP-62 NSCLC) was greater than 100 µM and the TGI (KM12 colon) was greater than 100 µM. For the same compound, the TGI (MALME-3M melanoma) was greater than 100 µM, the TGI (OVCAR-8 ovarian) was greater than 100 µM and the TGI (TK-10 renal) was greater than 100 µM. The TGI (UO-31 renal) was greater than 100 µM.

`NCCNc1ncnc2ccc(Cl)cc12` showed a TGI (A498 renal) greater than 100 µM, a TGI (HOP-62 NSCLC) greater than 100 µM and a TGI (KM12 colon) greater than 100 µM. The TGI (MALME-3M melanoma) was greater than 100 µM, the TGI (OVCAR-8 ovarian) was greater than 100 µM and the TGI (SR leukemia) was greater than 100 µM. It also gave a TGI (TK-10 renal) greater than 100 µM and a TGI (UO-31 renal) greater than 100 µM.

`CSc1nc(-c2cccc(NC(=O)CCl)c2)c(C#N)c(=O)n1C` gave a GI50 (A498 renal) of 5.51 µM, a TGI (A498 renal) of 32.9 µM and a GI50 (HOP-62 NSCLC) of 2.16 µM. It also gave a TGI (HOP-62 NSCLC) of 4.87 µM, a GI50 (KM12 colon) of 1.82 µM and a TGI (KM12 colon) of 3.54 µM. For the same compound, the GI50 (MALME-3M melanoma) was 1.17 µM, the TGI (MALME-3M melanoma) was 2.66 µM and the GI50 (OVCAR-8 ovarian) was 2.43 µM. For the same compound, the TGI (OVCAR-8 ovarian) was greater than 100 µM, the GI50 (TK-10 renal) was 2.38 µM and the TGI (TK-10 renal) was 5.53 µM. It also gave a GI50 (UO-31 renal) of 1.47 µM and a TGI (UO-31 renal) of 2.82 µM.

In the case of `Nc1nc(N)c(-c2ccc(Cl)cc2)c(/C=C/c2ccc([N+](=O)[O-])cc2)n1`, the GI50 (A498 renal) is reported as 1.97 µM, the TGI (A498 renal) is reported as 16.5 µM and the GI50 (HOP-62 NSCLC) is reported as 11.9 µM. For the same compound, the TGI (HOP-62 NSCLC) was 31.1 µM, the GI50 (KM12 colon) was 23.4 µM and the TGI (KM12 colon) was greater than 100 µM. The GI50 (MOLT-4 leukemia) was 8.27 µM, the TGI (MOLT-4 leukemia) was greater than 100 µM and the GI50 (OVCAR-8 ovarian) was 4.77 µM. The TGI (OVCAR-8 ovarian) was greater than 100 µM, the GI50 (SR leukemia) was 6.25 µM and the TGI (SR leukemia) was greater than 100 µM. For the same compound, the GI50 (UO-31 renal) was 21.4 µM and the TGI (UO-31 renal) was greater than 100 µM.

With `COc1ccc(S(=O)(=O)N/N=C/CN2C(=O)c3ccccc3C2=O)cc1` the TGI (A498 renal) was greater than 100 µM, the TGI (HOP-62 NSCLC) was greater than 100 µM and the TGI (KM12 colon) was greater than 100 µM. The TGI (MALME-3M melanoma) was greater than 100 µM, the TGI (MOLT-4 leukemia) was greater than 100 µM and the TGI (OVCAR-8 ovarian) was greater than 100 µM. The TGI (SR leukemia) was greater than 100 µM.

`COc1ccc2c(c1)O/C(=C\c1ccc([N+](=O)[O-])s1)C2=O` gave a GI50 (A498 renal) greater than 27.4 µM, a TGI (A498 renal) greater than 75.7 µM and a GI50 (HOP-62 NSCLC) of 8.11 µM. It also gave a TGI (HOP-62 NSCLC) greater than 31.6 µM, a GI50 (MALME-3M melanoma) of 4.99 µM and a TGI (MALME-3M melanoma) greater than 100 µM. It also gave a GI50 (MOLT-4 leukemia) of 2.26 µM, a TGI (MOLT-4 leukemia) greater than 100 µM and a GI50 (OVCAR-8 ovarian) of 2.19 µM. The TGI (OVCAR-8 ovarian) was greater than 100 µM, the GI50 (SR leukemia) was 0.12 µM and the TGI (SR leukemia) was 0.759 µM. The GI50 (TK-10 renal) was greater than 22.5 µM and the TGI (TK-10 renal) was greater than 100 µM.

In the case of `CCCNC(=O)Nc1ccc2c(c1)Cc1cc(N(CCCl)CCCl)ccc1-2`, the TGI (A498 renal) is reported as 33.4 µM, the TGI (HOP-62 NSCLC) is reported as greater than 100 µM and the TGI (KM12 colon) is reported as 56.5 µM. It also gave a TGI (MALME-3M melanoma) greater than 100 µM, a TGI (OVCAR-8 ovarian) greater than 100 µM and a TGI (SR leukemia) greater than 100 µM. For the same compound, the TGI (TK-10 renal) was greater than 100 µM and the TGI (UO-31 renal) was 82.2 µM.

Work on `C[C@H](CCCOS(C)(=O)=O)[C@H]1CC[C@H]2[C@@H]3CC[C@@H]4C[C@H](OS(C)(=O)=O)CC[C@]4(C)[C@H]3CC[C@]12C` yielded a GI50 (A498 renal) of 664 µM, a GI50 (HOP-62 NSCLC) of 493 µM and a GI50 (KM12 colon) of 1230 µM. For the same compound, the TGI (KM12 colon) was greater than 2500 µM, the GI50 (MALME-3M melanoma) was 994 µM and the GI50 (OVCAR-8 ovarian) was 582 µM. The GI50 (TK-10 renal) was 607 µM, the GI50 (UO-31 renal) was greater than 2500 µM and the TGI (UO-31 renal) was greater than 2500 µM.

For `Nc1nc(Cl)c2ncn(Cc3ccc(-c4ccc(CCl)cc4)cc3)c2n1`, the GI50 (A498 renal) was 35.2 µM, the TGI (A498 renal) was greater than 100 µM and the GI50 (HOP-62 NSCLC) was 15 µM. It also gave a TGI (HOP-62 NSCLC) of 34.8 µM, a GI50 (KM12 colon) of 27.7 µM and a TGI (KM12 colon) greater than 100 µM. For the same compound, the GI50 (MOLT-4 leukemia) was greater than 100 µM, the TGI (MOLT-4 leukemia) was greater than 100 µM and the GI50 (OVCAR-8 ovarian) was 7.86 µM. For the same compound, the TGI (OVCAR-8 ovarian) was 29.5 µM, the GI50 (SR leukemia) was 3.09 µM and the TGI (SR leukemia) was greater than 100 µM. For the same compound, the GI50 (TK-10 renal) was 6.44 µM, the TGI (TK-10 renal) was 19.8 µM and the GI50 (UO-31 renal) was 17.7 µM. It also gave a TGI (UO-31 renal) greater than 100 µM.

In the case of `NC(N)=NC(N)=NCc1ccco1`, the GI50 (A498 renal) is reported as 190 µM and > 1250 µM, the TGI (A498 renal) is reported as greater than 1250 µM and the GI50 (HOP-62 NSCLC) is reported as 780 µM. For the same compound, the TGI (HOP-62 NSCLC) was greater than 1250 µM, the GI50 (KM12 colon) was greater than 1250 µM and the TGI (KM12 colon) was greater than 1250 µM. The GI50 (MALME-3M melanoma) was 741 µM, the TGI (MALME-3M melanoma) was greater than 1250 µM and the GI50 (MOLT-4 leukemia) was greater than 1250 µM. For the same compound, the TGI (MOLT-4 leukemia) was greater than 1250 µM, the GI50 (OVCAR-8 ovarian) was 896 µM and the TGI (OVCAR-8 ovarian) was greater than 1250 µM. For the same compound, the GI50 (TK-10 renal) was greater than 1250 µM, the TGI (TK-10 renal) was greater than 1250 µM and the GI50 (UO-31 renal) was greater than 1250 µM. It also gave a TGI (UO-31 renal) greater than 1250 µM.

With `CC1(C)N=C(N)N=C(N)N1c1ccc(CCC(=O)Nc2cccc(S(=O)(=O)F)c2)cc1` the GI50 (A498 renal) was 20.1 µM, the TGI (A498 renal) was greater than 100 µM and the GI50 (HOP-62 NSCLC) was 6.56 µM. It also gave a TGI (HOP-62 NSCLC) greater than 100 µM, a GI50 (KM12 colon) of 10.6 µM and a TGI (KM12 colon) greater than 100 µM. For the same compound, the GI50 (MALME-3M melanoma) was 21.3 µM, the TGI (MALME-3M melanoma) was greater than 100 µM and the GI50 (MOLT-4 leukemia) was 19.8 µM. The TGI (MOLT-4 leukemia) was greater than 100 µM, the GI50 (OVCAR-8 ovarian) was 6.46 µM and the TGI (OVCAR-8 ovarian) was greater than 100 µM. For the same compound, the GI50 (TK-10 renal) was 5.57 µM, the TGI (TK-10 renal) was greater than 100 µM and the GI50 (UO-31 renal) was 13.2 µM. It also gave a TGI (UO-31 renal) greater than 100 µM.

`O=C(N/N=C/c1cccc(O)c1)c1ccc(C(F)(F)F)nc1Nc1cccc(C(F)(F)F)c1` showed a GI50 (A498 renal) of 1.59 µM, a TGI (A498 renal) of 5.65 µM and a GI50 (HOP-62 NSCLC) of 2.35 µM. The TGI (HOP-62 NSCLC) was 6.95 µM, the GI50 (KM12 colon) was 1.69 µM and the TGI (KM12 colon) was 5.22 µM. It also gave a GI50 (MALME-3M melanoma) of 1.36 µM, a TGI (MALME-3M melanoma) of 3.83 µM and a GI50 (MOLT-4 leukemia) of 0.43 µM. It also gave a TGI (MOLT-4 leukemia) of 2.09 µM, a GI50 (OVCAR-8 ovarian) of 2.12 µM and a TGI (OVCAR-8 ovarian) of 11.3 µM. It also gave a GI50 (TK-10 renal) of 1.44 µM, a TGI (TK-10 renal) of 4.64 µM and a GI50 (UO-31 renal) of 1.59 µM. For the same compound, the TGI (UO-31 renal) was 5.08 µM.
